Reference: article PMC10382584, “Macrocyclization of linear molecules by deep learning to facilitate macrocyclic drug candidates discovery” (Nature Communications, 2023)

Columns and labels:
Test in all cases: biochemical
Parameters in all cases: DiscoveRx KINOMEscan competition binding, percent of DMSO control signal at 100 nM
Settings in all cases: read-out: Fig. 4a / Percent Control / Compound 1; percent of DMSO control, competition binding
[1] = target: ACVR1B (Homo sapiens, UniProt P36896)
[2] = target: T1, BIKE (Homo sapiens, UniProt Q9NSY1)
T1 construct: gene BMP2K

[3] = target: CSNK1G3 (Homo sapiens, UniProt Q9Y6M4)
[4] = target: DAPK3 (Homo sapiens, UniProt O43293)
[5] = target: EPHA2 (Homo sapiens, UniProt P29317)
[6] = target: ERBB2 (Homo sapiens, UniProt P04626)
[7] = target: FLT3(ITD) (Homo sapiens, UniProt P36888, ITD)
[8] = target: FLT3(K663Q) (Homo sapiens, UniProt P36888, K663Q)
[9] = target: T2, GCN2(Kin.Dom.2,S808G) (Homo sapiens, UniProt Q9P2K8, S808G)
T2 construct: gene EIF2AK4; Kin.Dom.2

[10] = target: HASPIN (Homo sapiens, UniProt Q8TF76)
[11] = target: HIPK4 (Homo sapiens, UniProt Q8NE63)
[12] = target: KIT(D816H) (Homo sapiens, UniProt P10721, D816H)
[13] = target: LRRK2 (Homo sapiens, UniProt Q5S007)
[14] = target: MAP3K3 (Homo sapiens, UniProt Q99759)
[15] = target: MYO3A (Homo sapiens, UniProt Q8NEV4)
[16] = target: NEK6 (Homo sapiens, UniProt Q9HC98)
[17] = target: PIK3C2G (Homo sapiens, UniProt O75747)
[18] = target: PIP5K1C (Homo sapiens, UniProt O60331)
[19] = target: PLK3 (Homo sapiens, UniProt Q9H4B4)
[20] = target: PRKX (Homo sapiens, UniProt P51817)
[21] = target: ROCK1 (Homo sapiens, UniProt Q13464)
[22] = target: T3, SGK (Homo sapiens, UniProt O00141)
T3 construct: gene SGK1

[23] = target: SRPK1 (Homo sapiens, UniProt Q96SB4)
[24] = target: TAOK3 (Homo sapiens, UniProt Q9H2K8)
[25] = target: WNK2 (Homo sapiens, UniProt Q9Y3S1)
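Also: KINOMEscan kinase panel binding assay, signal normalized between DMSO as 100% and a positive control compound as 0%.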

T2 sequence (Q9P2K8 whole entry S808G): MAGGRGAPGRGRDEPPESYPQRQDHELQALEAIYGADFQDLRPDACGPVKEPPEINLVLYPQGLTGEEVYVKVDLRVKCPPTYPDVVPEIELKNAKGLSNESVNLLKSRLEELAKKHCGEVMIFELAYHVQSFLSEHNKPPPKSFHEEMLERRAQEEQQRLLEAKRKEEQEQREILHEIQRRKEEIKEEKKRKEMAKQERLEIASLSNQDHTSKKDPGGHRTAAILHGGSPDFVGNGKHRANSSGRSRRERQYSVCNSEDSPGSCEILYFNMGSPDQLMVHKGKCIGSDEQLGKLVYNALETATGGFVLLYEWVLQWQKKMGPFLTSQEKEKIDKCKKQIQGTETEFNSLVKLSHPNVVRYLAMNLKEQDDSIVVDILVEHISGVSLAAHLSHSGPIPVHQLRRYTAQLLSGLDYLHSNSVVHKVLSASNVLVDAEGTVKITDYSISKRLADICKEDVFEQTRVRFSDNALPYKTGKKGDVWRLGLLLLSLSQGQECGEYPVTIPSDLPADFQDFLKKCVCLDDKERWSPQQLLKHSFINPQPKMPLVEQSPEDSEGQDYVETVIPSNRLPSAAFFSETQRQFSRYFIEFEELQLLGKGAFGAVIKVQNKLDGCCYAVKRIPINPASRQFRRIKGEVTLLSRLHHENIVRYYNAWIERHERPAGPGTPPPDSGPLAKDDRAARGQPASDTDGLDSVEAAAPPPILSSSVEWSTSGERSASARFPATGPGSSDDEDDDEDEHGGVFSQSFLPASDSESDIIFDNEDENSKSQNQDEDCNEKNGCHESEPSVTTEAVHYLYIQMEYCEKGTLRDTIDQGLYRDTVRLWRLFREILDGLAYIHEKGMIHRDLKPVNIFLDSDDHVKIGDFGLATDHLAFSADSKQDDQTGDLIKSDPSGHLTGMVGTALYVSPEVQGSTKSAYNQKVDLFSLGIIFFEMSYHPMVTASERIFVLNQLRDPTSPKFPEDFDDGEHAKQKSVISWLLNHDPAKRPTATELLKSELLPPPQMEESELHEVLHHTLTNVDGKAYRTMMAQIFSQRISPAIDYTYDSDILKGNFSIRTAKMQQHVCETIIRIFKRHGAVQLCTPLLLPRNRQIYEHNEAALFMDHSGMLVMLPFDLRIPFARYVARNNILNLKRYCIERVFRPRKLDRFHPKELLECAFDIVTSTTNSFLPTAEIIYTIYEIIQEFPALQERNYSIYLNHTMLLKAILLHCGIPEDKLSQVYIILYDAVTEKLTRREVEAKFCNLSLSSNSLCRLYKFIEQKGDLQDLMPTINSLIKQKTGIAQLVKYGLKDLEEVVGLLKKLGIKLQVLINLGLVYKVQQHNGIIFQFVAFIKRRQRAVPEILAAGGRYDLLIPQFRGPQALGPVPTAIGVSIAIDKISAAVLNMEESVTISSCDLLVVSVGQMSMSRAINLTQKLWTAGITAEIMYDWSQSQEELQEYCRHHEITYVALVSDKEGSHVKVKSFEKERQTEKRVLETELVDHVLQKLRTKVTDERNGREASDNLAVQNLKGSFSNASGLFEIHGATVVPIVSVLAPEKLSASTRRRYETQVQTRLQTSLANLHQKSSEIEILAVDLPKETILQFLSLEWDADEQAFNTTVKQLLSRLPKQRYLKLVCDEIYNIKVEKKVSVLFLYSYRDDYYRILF
ROCK1, sequence (Q13464 whole entry): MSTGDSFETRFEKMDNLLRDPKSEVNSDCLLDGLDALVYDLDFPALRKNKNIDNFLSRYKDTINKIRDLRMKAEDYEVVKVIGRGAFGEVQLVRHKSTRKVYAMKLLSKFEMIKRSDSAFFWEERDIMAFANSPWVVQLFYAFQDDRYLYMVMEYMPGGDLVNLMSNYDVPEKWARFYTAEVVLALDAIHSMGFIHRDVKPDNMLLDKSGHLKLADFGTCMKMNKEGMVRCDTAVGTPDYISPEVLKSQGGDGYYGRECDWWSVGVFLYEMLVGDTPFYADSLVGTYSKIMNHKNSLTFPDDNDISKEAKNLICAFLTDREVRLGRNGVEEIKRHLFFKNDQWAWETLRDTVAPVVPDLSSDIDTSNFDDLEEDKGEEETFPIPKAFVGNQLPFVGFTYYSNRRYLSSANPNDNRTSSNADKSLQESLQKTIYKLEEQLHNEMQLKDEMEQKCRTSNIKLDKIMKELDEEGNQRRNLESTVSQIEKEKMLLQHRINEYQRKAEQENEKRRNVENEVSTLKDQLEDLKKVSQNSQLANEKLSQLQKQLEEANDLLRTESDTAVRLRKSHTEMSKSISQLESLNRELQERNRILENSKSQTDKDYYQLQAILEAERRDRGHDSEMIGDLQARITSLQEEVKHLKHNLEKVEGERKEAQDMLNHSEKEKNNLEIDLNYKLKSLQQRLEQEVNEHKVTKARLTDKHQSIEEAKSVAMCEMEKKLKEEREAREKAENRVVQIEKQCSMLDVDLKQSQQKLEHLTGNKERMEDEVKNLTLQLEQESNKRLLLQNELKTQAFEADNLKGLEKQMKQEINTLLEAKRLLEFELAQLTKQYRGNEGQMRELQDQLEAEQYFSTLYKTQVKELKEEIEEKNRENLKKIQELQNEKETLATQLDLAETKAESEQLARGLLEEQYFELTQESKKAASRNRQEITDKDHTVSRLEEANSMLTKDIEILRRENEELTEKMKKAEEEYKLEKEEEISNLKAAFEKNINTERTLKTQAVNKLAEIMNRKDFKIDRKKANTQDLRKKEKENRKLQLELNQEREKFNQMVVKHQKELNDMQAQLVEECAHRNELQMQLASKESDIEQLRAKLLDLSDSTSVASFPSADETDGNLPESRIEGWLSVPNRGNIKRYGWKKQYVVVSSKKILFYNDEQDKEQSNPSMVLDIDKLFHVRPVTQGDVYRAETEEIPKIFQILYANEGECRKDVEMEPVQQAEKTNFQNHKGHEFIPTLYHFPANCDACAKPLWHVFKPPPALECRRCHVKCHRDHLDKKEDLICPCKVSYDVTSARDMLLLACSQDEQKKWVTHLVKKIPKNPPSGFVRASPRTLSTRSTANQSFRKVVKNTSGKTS
PRKX, sequence (P51817 whole entry): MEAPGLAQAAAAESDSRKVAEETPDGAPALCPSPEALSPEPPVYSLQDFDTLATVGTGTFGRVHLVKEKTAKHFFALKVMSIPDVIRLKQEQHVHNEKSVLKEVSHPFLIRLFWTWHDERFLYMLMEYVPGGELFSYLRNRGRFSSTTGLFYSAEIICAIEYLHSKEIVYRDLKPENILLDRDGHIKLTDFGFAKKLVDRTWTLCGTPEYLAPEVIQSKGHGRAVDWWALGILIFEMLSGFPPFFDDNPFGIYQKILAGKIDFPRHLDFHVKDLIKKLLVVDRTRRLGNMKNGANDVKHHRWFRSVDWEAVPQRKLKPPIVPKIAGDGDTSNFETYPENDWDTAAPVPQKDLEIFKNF
ERBB2, sequence (P04626 whole entry): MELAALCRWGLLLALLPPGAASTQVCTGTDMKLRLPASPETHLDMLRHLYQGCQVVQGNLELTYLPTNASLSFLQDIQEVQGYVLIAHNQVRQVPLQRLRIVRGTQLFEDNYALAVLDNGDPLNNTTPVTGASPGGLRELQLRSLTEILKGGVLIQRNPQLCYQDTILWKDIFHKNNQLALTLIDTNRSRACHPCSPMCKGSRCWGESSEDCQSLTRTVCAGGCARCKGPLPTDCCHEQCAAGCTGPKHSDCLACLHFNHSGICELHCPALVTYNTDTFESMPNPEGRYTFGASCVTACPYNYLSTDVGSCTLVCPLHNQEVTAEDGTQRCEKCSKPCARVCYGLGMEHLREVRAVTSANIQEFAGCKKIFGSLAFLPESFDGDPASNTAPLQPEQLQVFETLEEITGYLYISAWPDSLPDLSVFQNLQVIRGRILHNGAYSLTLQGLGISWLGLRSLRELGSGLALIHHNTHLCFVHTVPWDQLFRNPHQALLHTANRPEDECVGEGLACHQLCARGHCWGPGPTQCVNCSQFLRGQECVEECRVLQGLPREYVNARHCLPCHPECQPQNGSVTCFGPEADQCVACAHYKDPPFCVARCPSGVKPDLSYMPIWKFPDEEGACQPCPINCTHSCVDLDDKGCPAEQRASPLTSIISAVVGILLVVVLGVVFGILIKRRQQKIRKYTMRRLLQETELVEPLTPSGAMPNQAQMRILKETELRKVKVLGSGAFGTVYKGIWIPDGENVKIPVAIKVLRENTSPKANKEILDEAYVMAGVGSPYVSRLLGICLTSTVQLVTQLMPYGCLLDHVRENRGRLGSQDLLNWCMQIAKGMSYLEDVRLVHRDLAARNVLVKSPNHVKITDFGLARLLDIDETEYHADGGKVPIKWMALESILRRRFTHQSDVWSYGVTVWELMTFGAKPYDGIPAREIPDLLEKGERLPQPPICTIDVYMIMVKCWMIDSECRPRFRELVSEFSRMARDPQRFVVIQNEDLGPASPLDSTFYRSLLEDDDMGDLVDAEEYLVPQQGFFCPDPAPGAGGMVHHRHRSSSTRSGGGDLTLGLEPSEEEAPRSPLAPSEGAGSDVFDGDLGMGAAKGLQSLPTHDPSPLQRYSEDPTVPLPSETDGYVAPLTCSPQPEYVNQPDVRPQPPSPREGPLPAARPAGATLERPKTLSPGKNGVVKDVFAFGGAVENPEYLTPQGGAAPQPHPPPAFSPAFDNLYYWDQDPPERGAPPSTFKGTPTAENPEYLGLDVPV
CSNK1G3, sequence (Q9Y6M4 whole entry): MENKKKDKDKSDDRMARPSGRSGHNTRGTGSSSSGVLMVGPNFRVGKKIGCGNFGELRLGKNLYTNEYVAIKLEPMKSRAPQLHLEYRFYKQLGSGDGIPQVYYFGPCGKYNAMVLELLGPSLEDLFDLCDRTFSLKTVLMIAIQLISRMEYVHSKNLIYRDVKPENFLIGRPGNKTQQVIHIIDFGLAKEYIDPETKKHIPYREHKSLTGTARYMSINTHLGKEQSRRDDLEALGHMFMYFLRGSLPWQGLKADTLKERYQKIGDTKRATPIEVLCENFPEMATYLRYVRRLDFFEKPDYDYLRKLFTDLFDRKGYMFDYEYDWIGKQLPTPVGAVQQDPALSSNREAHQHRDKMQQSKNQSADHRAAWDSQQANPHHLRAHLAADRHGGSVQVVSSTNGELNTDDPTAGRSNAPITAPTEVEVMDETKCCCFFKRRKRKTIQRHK

With Cc1cnc2nc1Nc1cccc(c1)COCc1cc(ccc1OCCN1CCCC1)N2 [Compound 1] the remaining binding at 0.1 µM [1] was 100%, the remaining binding at 0.1 µM [2] was 47% and the remaining binding at 0.1 µM [3] was 100%. For the same compound, the remaining binding at 0.1 µM [4] was 94%, the remaining binding at 0.1 µM [5] was 82% and the remaining binding at 0.1 µM [6] was 96%. It also gave a remaining binding at 0.1 µM [7] of 17%, a remaining binding at 0.1 µM [8] of 36% and a remaining binding at 0.1 µM [9] of 38%. For the same compound, the remaining binding at 0.1 µM [10] was 79%, the remaining binding at 0.1 µM [11] was 79% and the remaining binding at 0.1 µM [12] was 60%. The remaining binding at 0.1 µM [13] was 85%, the remaining binding at 0.1 µM [14] was 74% and the remaining binding at 0.1 µM [15] was 100%. The remaining binding at 0.1 µM [16] was 100%, the remaining binding at 0.1 µM [17] was 80% and the remaining binding at 0.1 µM [18] was 66%. The remaining binding at 0.1 µM [19] was 99%, the remaining binding at 0.1 µM [20] was 76% and the remaining binding at 0.1 µM [21] was 88%. The remaining binding at 0.1 µM [22] was 75%, the remaining binding at 0.1 µM [23] was 97% and the remaining binding at 0.1 µM [24] was 56%. The remaining binding at 0.1 µM [25] was 100%.
